Experimental findings from PubChem BioAssay AID1996 are described below.

Converted amounts (≈) assume the structure as drawn.

For the series the following is noted: buffer; pH 7.4; 200.0 µM.
What is called solubility (kinetic) is the concentration staying in solution when a stock, usually in DMSO, is diluted into the medium. Regarding `O=C(COc1ccccc1)Nc1cc(Cl)ccc1Cl`, the solubility (kinetic) is < 0.6 µg/mL.

Turning to `COc1ccccc1CNC(=O)COC(=O)Cn1cnc2ccccc21`, the kinetic solubility was 38.3 µg/mL (≈ 108 µM).

As to `O=S(=O)(c1ccc2c(c1)CCCC2)N1CCNCC1`, the solubility (kinetic) was > 42.1 µg/mL.

`O=C(Nc1ccccc1)/C(=C1\CCCN1)[N+](=O)[O-]`: the kinetic solubility was 29.6 µg/mL (≈ 120 µM).

`Cn1c(=O)[nH]c(=O)c2c1nc(N)n2Cc1ccccc1`: the kinetic solubility was > 40.7 µg/mL.

Compound `O=C1/C(=C/c2ccncc2)CCc2ccccc21` showed a solubility (kinetic) of 34.2 µg/mL (≈ 145 µM).

Regarding `CCOC(=O)C1C(c2ccc(Cl)cc2)NC(=S)NC1(O)C(F)(F)F` (centres undefined), the kinetic solubility came to 37.8 µg/mL (≈ 98.7 µM).

`CC(NC(=O)c1cc2cc(Cl)ccc2oc1=N)c1ccccc1` (centres undefined) returned a solubility (kinetic) of 4.2 µg/mL (≈ 12.9 µM).

In the case of `COc1ccc(CCNC(=O)c2cccs2)cc1`, the kinetic solubility was determined as 38.7 µg/mL (≈ 148 µM).

In turn, `Fc1cnc(Cl)nc1NC1CCCCC1` had a kinetic solubility of 27.1 µg/mL (≈ 118 µM).

Consider `Cc1ccc(C)c(SCC(=O)N(C)C2CCS(=O)(=O)C2)c1` (centres undefined), for which the kinetic solubility was > 49.1 µg/mL.

For the compound `Cl.Oc1ccc(Nc2ncnc3c2oc2ccccc23)cc1`, the solubility (kinetic) worked out at 0.7 µg/mL.

As to `CC(=O)Nc1cccc(C(=O)OC2CCOC2=O)c1` (centres undefined), the solubility (kinetic) was > 39.5 µg/mL.

Take `Nc1nc(NCc2ccco2)nc(N2CCOCC2)c1[N+](=O)[O-]`: the solubility (kinetic) is > 48 µg/mL.

In turn, `Cc1ccccc1C(=O)Nc1ccc2nc3n(c(=O)c2c1)CCCC3` registered a kinetic solubility of 37.5 µg/mL (≈ 112 µM).

For the compound `Cl.N=c1n(CCO)c2ccccc2n1CCN1CCCCC1`, the kinetic solubility is > 48.7 µg/mL.

Compound `O=C(/C=C/c1ccco1)Nc1scc(-c2ccccc2)c1C(=O)O` displayed a solubility (kinetic) of 48.9 µg/mL (≈ 144 µM).

In turn, `CCCSCCCNC(=O)Cn1c(=O)c2cccn2c2ccccc21` had a solubility (kinetic) of 7.7 µg/mL (≈ 21.5 µM).

For `CCOC(=O)c1cccc(NC(=O)N2CCOCC2)c1`, the solubility (kinetic) was > 41.7 µg/mL.

Regarding `Cc1cc(=O)[nH]c(N2CCN(C(=O)c3ccco3)CC2)n1`, the kinetic solubility is > 43.2 µg/mL.

Compound `O=C(O)C1C2C=CC(C2)C1C(=O)NCc1cccc(Cl)c1` (centres undefined) had a kinetic solubility of 43.3 µg/mL (≈ 142 µM).

Turning to `COc1ccc(/C=C2/SC(=S)NC2=O)cc1OCc1ccccc1`, the kinetic solubility was < 0.8 µg/mL.

Compound `CC(OC(=O)CCCC(=O)Nc1ccccc1)C(=O)c1ccccc1` (centres undefined) had a kinetic solubility of 45.6 µg/mL (≈ 134 µM).

The compound `CC(C)=CC(=O)OCC(=O)Nc1ccc(Cl)cc1` yielded a solubility (kinetic) of 36.3 µg/mL (≈ 136 µM).

Compound `CCN1CCN(CC(=O)Nc2ccc(C(C)=O)cc2)CC1.Cl` showed a solubility (kinetic) of 45.2 µg/mL.

Regarding `NS(=O)(=O)Cc1noc2ccccc12`, the solubility (kinetic) is > 31.8 µg/mL.

With `CC(=O)Nc1ccc2nc(NC(=O)c3cccs3)sc2c1`, the solubility (kinetic) turned out to be 3.6 µg/mL (≈ 11.3 µM).

Consider `Cc1ccc(-c2c(NC(=O)C(C)C)n(C)c3ccccc3c2=O)cc1`, for which the kinetic solubility was 29.4 µg/mL (≈ 87.9 µM).

Consider `O=C(NCCC(=O)N1CCCC1)c1ccccc1Cl`, for which the kinetic solubility was > 42.1 µg/mL.

The compound `CCCCC/C(=N/O)c1c(C)[nH]c2ccccc12` came in with a solubility (kinetic) of 29.8 µg/mL (≈ 122 µM).

For the compound `CC1=[N+](C)N(c2ccccc2)C(=O)C1N=C/C=C/c1ccccc1` (centres undefined), the solubility (kinetic) is > 47.8 µg/mL.

`CCCCNC(=O)COC(=O)c1ccccc1F` yielded a kinetic solubility of 37.9 µg/mL (≈ 150 µM).

As to `COc1ccc(C(=O)NC(=S)N2CCN(c3ccccc3O)CC2)cc1`, the kinetic solubility was 6.1 µg/mL (≈ 16.4 µM).

`O=C(CNC(=O)c1ccc(OC(F)F)cc1)NC1CCCc2ccccc21` (centres undefined): the solubility (kinetic) was determined as 5.6 µg/mL (≈ 15 µM).

On to `Cn1c(O)c(C=NC2CCN(Cc3ccccc3)CC2)c(=O)[nH]c1=O`, for which the kinetic solubility was > 51.4 µg/mL.

The compound `CC1CCC2(CC1)NC(=O)N(CC(=O)c1ccc3c(c1)OCO3)C2=O` (centres undefined) displayed a solubility (kinetic) of 3.8 µg/mL (≈ 11 µM).

In turn, `C=CCN(c1ccccc1OC)S(=O)(=O)c1cccc(C(=O)NC2=NCCS2)c1` yielded a kinetic solubility of 7.4 µg/mL (≈ 17.1 µM).

`Cc1ccc(OCC(=O)NCCNC(=O)c2ccccn2)cc1` gave a kinetic solubility of 46.9 µg/mL (≈ 150 µM).

As to `COCC(=O)Nc1cc(Cl)ccc1C`, the kinetic solubility is > 32 µg/mL.

`CC(C)OC(=O)Cc1nc2sc(-c3ccccc3)cc2c(=O)[nH]1` came in with a solubility (kinetic) of 2 µg/mL (≈ 6.09 µM).

Turning to `CCCOC(=O)Cn1cnc2scc(-c3ccc(OC)cc3)c2c1=O`, the solubility (kinetic) was determined as 27.7 µg/mL (≈ 77.3 µM).

`COc1cc(C(=O)NCC(=O)OCc2ccc(F)cc2)cc(OC)c1OC`: the kinetic solubility came out at 11.8 µg/mL (≈ 31.3 µM).

Take `C=CCSc1ncccc1C(=O)NCCc1ccc(Cl)cc1`: the solubility (kinetic) was found to be 3.6 µg/mL (≈ 10.8 µM).

In the case of `O=C(Nc1ccncc1)Nc1cccc(F)c1`, the solubility (kinetic) was > 34.7 µg/mL.

With `COc1cc(C)nc(-c2csc(C)n2)n1`, the solubility (kinetic) was determined as 28.6 µg/mL (≈ 129 µM).

As to `CC(N)C12CC3CC(CC(C3)C1)C2.Cl` (centres undefined), the solubility (kinetic) is > 32.4 µg/mL.

`O=C(COc1cccnc1[N+](=O)[O-])c1ccc(Cl)s1` yielded a solubility (kinetic) of 37.2 µg/mL (≈ 125 µM).

In the case of `CC(=O)NC12CC3CC(C1)CC(C(=O)OCC(=O)c1cc(C)n(C)c1C)(C3)C2`, the kinetic solubility was determined as 49.5 µg/mL (≈ 128 µM).

For the compound `COc1cccc(C(=O)NCCS(=O)(=O)N2CCCC2)c1`, the kinetic solubility is > 46.9 µg/mL.

Regarding `O=C(CNc1ccccc1F)Nc1cccc2ccccc12`, the kinetic solubility was found to be 10.4 µg/mL (≈ 35.3 µM).

Consider `CC1CCN(CCCNc2cc(NCCO)c([N+](=O)[O-])c3nonc23)CC1`, for which the solubility (kinetic) was > 56.8 µg/mL.

The compound `Cc1ccccc1NC(=O)CN1CCc2ccccc2C1` registered a solubility (kinetic) of 24.8 µg/mL (≈ 88.5 µM).

Consider `CCOc1ccc(OCCSc2nc(N)cc(=O)[nH]2)cc1`, for which the solubility (kinetic) is 4.1 µg/mL (≈ 13.3 µM).

With `CCCCCCCCC1CC(C(=O)Nc2ccccc2)C(=O)O1` (centres undefined), the kinetic solubility was < 0.7 µg/mL.

`Cc1cc(=O)[nH]c(/N=C(\N)Nc2ccc(SC(F)F)cc2)n1` yielded a solubility (kinetic) of 2 µg/mL (≈ 6.15 µM).

Regarding `N#Cc1ccccc1COC(=O)c1ccc2c(c1)OCCO2`, the solubility (kinetic) was found to be 10.9 µg/mL (≈ 36.9 µM).

With `O=C1CCc2ccccc2N1Cc1ccccc1`, the kinetic solubility was 32.5 µg/mL (≈ 137 µM).

On to `COc1ccc(C(=O)O/N=C2\CCS(=O)(=O)c3sccc32)cc1`, for which the kinetic solubility is < 0.8 µg/mL.

For `Cc1ccccc1C(=O)Nc1ccc(N(C)C)c2ccccc12`, the solubility (kinetic) was determined as 13.6 µg/mL (≈ 44.7 µM).

Regarding `Cc1cnc(NC(=O)c2ccccn2)s1`, the kinetic solubility is 29.3 µg/mL (≈ 134 µM).

Take `CC(=O)Nc1ccc(S(=O)(=O)Nc2nc(C)nc3sc(C)c(C)c23)cc1`: the solubility (kinetic) was > 58.6 µg/mL.

Compound `CCCCSCCCNC(=S)Nc1ccccc1C` displayed a kinetic solubility of 35.3 µg/mL (≈ 119 µM).

In the case of `COC(=O)c1cccc(NC(=O)CSCc2ccccc2)c1`, the kinetic solubility worked out at 35.6 µg/mL (≈ 113 µM).

The compound `Cc1cc(C(=O)COC(=O)Cc2ccc(Cl)cc2)c(C)n1C` yielded a kinetic solubility of 21.3 µg/mL (≈ 66.6 µM).

Turning to `Cc1ccc(C)n1CCN1CCN(C(=O)c2ccc(Cl)cc2)CC1`, the solubility (kinetic) came out at 36.3 µg/mL (≈ 105 µM).

With `Cn1nc(C(F)(F)F)c(-c2ccccc2)c1NC(=O)CCC(=O)O`, the solubility (kinetic) is > 51.2 µg/mL.

In turn, `CCOC(=O)Cc1csc(NC(=O)CN2CCN(CC)CC2)n1` gave a solubility (kinetic) of 3.8 µg/mL (≈ 11.2 µM).

For `CC(C)OC(=O)Cn1cc(C#N)c2ccccc21`, the solubility (kinetic) was > 36.3 µg/mL.

With `O=C(O)/C=C/C(=O)Nc1nc(-c2ccc3ccccc3c2)cs1`, the solubility (kinetic) is > 48.7 µg/mL.

`CNc1ccc(/C=C(\C#N)C(=O)Nc2ccccn2)cc1[N+](=O)[O-]` yielded a solubility (kinetic) of 2.8 µg/mL (≈ 8.66 µM).

Regarding `N/C(=N\OC(=O)CSc1ccccc1)c1ccncc1`, the kinetic solubility stood at 37.6 µg/mL (≈ 131 µM).

With `CCC(=O)OCCNc1cc(SCCC(=O)OC)c2nonc2c1[N+](=O)[O-]`, the kinetic solubility came to 54.9 µg/mL (≈ 138 µM).

With `CCS(=O)(=O)Nc1cccc(-c2cn3c(n2)SCC3)c1`, the kinetic solubility is > 46.4 µg/mL.

As to `Cn1ccnc1SCC(=O)Nc1ccc([N+](=O)[O-])cn1`, the solubility (kinetic) is > 44 µg/mL.
